The record followed here is US8007767B2, “Amino methyl imidazoles and related compounds as C5a receptor modulators” (Novartis International Pharmaceutical Ltd., priority 2002, dated 2011).

In this experiment the target is T1, human C5a receptor (Homo sapiens, UniProt P21730).
T1 construct: endogenous in cells; host or cells: U937 cells differentiated with 1 mM dibutyryl cAMP
T1 sequence (P21730 1-350): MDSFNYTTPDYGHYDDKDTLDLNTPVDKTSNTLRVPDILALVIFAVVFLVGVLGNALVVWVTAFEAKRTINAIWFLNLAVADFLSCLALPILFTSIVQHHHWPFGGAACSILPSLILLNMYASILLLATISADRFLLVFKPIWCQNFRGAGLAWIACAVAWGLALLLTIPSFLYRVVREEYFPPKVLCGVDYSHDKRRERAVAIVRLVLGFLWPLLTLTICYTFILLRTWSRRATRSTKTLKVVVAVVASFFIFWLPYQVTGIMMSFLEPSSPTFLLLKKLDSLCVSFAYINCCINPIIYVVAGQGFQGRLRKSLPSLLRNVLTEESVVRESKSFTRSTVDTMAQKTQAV
Put plainly: standard assay of C5a receptor mediated calcium mobilization (Example 20). The following applies: differentiated U937 cells, read-out: Ki < 1 μM. The class given is cell-based. On the procedure:
U937 cells are grown in differentiation media (1 mM dibutyrl cAMP in RPMI 1640 medium containing 10% fetal bovine serum) for 48 hours at 37° C. then reseeded onto 96-well plates suitable for use in a FLIPR™ Plate Reader (Molecular Devices Corp., Sunnyvale Calif.). Cells are grown an additional 24 hours (to 70-90% confluence) before the assay. The cells are then washed once with Krebs Ringer solution. FLUO-3 calcium sensitive dye (Molecular Probes, Inc. Eugene, Oreg.) is added to 10 μg/mL and incubated with the cells at room temperature for 1 to 2 hours. The 96 well plates are then washed to remove excess dye.
C. Assays for the Identification of Receptor Modulatory Agents: Antagonists and Agonists
Those of skill in the art will recognize that the calcium mobilization assay described above may be readily adapted for identifying test compounds as having agonist or antagonist activity, at the human C5a receptor.
For example, in order to identify antagonist compounds, differentiated U937 cells are washed and incubated with Fluo-3 dye as described above. One hour prior to measuring the fluorescence signal, a subset of the cells is incubated with a 1 uM concentration of at least one compound to be tested. The fluorescence response upon the subsequent addition of 0.3 nM (final concentration) human recombinant C5a is monitored using the FLIPR™ plate reader. Antagonist compounds elicit at least a 2-fold decrease in the fluorescence response relative to that measured in the presence of human C5a alone. Preferred antagonist compounds elicit at least a 5-fold, preferably at least a 10-fold, and more preferably at least a 20-fold decrease in the fluorescence response relative to that measured in the presence of human C5a alone.
In general terms: Calcium assays in cells follow changes in intracellular calcium, usually with a dye or a luminescent sensor.
For orientation: Ki means a dissociation constant, usually derived from enzyme kinetics or from competition with a known ligand. Consider `CCCCn1c(CN(Cc2ccccc2)Cc2ccc3c(c2)OCO3)cnc1C1CCCCC1` [Compound 9, Benzo[1,3]dioxol-5-ylmethyl-benzyl(1-butyl-2-cyclohexyl-3H-imidazol-5-ylmethyl)-amine], for which the Ki is < 1000 nM.
For the molecule `CCCCn1c(CN(Cc2ccccc2)Cc2ccc3c(c2)OCCO3)cnc1C1CCCCC1` [Compound 10, Benzyl-(1-butyl-2-cyclohexyl-3H-imidazol-5-ylmethyl)-(2,3-dihydro-benzo[1,4]dioxin-6-ylmethyl)-amine], the Ki was < 1000 nM.
For `CCCCn1c(C2CC2)nc(-c2ccccc2)c1CN(Cc1ccc2c(c1)OCO2)Cc1ccc2c(c1)OCO2` [Compound 11, 1-(1,3-benzodioxol-5-yl)-N-(1,3-benzodioxol-5-ylmethyl)-N-[(1-butyl-2-cycloproyl-4-phenyl-1H-imidazol-5yl)methyl]methanamine], the Ki was < 1000 nM.
In the case of `CCCCn1c(C2=CCCCC2)nc(-c2ccccc2)c1CN(Cc1ccc2c(c1)OCO2)Cc1ccc2c(c1)OCO2` [Compound 12, 1-(1,3-benzodioxol-5-yl)-N-(1,3-benzodioxol-5-ylmethyl)-N-[(1-butyl-2-cyclohex-1-en-1-yl-4-phenyl-1H-imidazol-5-yl)methyl]methanamine], the Ki was < 1000 nM.
On to `CCCCn1c(C2CC=CCC2)nc(-c2ccccc2)c1CN(Cc1ccc2c(c1)OCO2)Cc1ccc2c(c1)OCO2` (centres unmarked) [Compound 13, 1-(1,3-benzodioxol-5-yl)-N-(1,3-benzodioxol-5-ylmethyl)-N-[(1-butyl-2-cyclohex-3-enyl-4-phenyl-1H-imidazol-5-yl)methyl]methanamine], for which the inhibition constant Ki is < 1000 nM.
On to `CCCCn1c(N2CCOCC2)nc(Cl)c1CN(Cc1ccc(C(=O)OC)cc1)Cc1ccc2c(c1)OCCO2` [Compound 14, methyl 4-{[[(1-butyl-4-chloro-2-morpholin-4-yl-1H-imidazol-5-yl)methyl](2,3-dihydro-1,4-benzodioxin-6-ylmethyl)amino]methyl}benzoate], for which the Ki is < 1000 nM.
On to `CCCCn1c(N2CCOCC2)nc(Cl)c1CN(Cc1ccc(C(=O)O)cc1)Cc1ccc2c(c1)OCCO2` [Compound 15, 4-{[[(1-butyl-4-chloro-2-morpholin-4-yl-1H-imidazol-5-yl)methyl](2,3-dihydro-1,4-benzodioxin-6-ylmethyl)amino]methyl}benzoic acid], for which the Ki is < 1000 nM.
Take `CCCCN(Cc1ccc2[nH]ccc2c1)Cc1c(Cl)nc(N2CCOCC2)n1CCCC` [Compound 16, N-[(1-butyl-4-chloro-2-morpholin-4-yl-1H-imidazol-5-yl)methyl]-N-(1H-indol-5-ylmethyl)butan-1-amine]: the Ki was < 1000 nM.
To `CCCCN(Cc1ccc2c(c1)OCCO2)Cc1c(Cl)nc(N2CCOCC2)n1CCCC` [Compound 17, N-[(1-butyl-4-chloro-2-morpholin-4-yl-1H-imidazol-5-yl)methyl]-N-(2,3-dihydro-1,4-benzodioxin-6-ylmethyl)butan-1-amine] belongs < 1000 nM; to `CCCCn1c(N2CCOCC2)nc(Cl)c1CN(CCC(C)C)Cc1ccc2c(c1)OCCO2` [Compound 18, N-[(1-butyl-4-chloro-2-morpholin-4-yl-1H-imidazol-5-yl)methyl]-N-(2,3-dihydro-1,4-benzodioxin-6-ylmethyl)-3-methylbutan-1-amine], < 1000 nM.
Then `CCCCN(Cc1c(Cl)nc(N2CCOCC2)n1CCCC)C(C)c1ccc2c(c1)OCCO2` (centres unmarked) [Compound 19, N-[(1-butyl-4-chloro-2-morpholin-4-yl-1H-imidazol-5-yl)methyl]-N-[1-(2,3-dihydro-1,4-benzodioxin-6-yl)ethyl]butan-1-amine], with < 1000 nM; and `CCCCn1c(N2CCOCC2)nc(Cl)c1CN(CCC(C)C)C(C)c1ccc2c(c1)OCCO2` (centres unmarked) [Compound 20, N-{(1-butyl-4-chloro-2-morpholin-4-yl-1H-imidazol-5-yl)methyl]-N-[1-(2,3-dihydro-1,4-benzodioxin-6-yl)ethyl]-3-methylbutan-1-amine], with < 1000 nM; and `CCCCn1c(N2CCCCC2)nc(Cl)c1CN(Cc1cccc(OCC)c1)Cc1ccc2c(c1)OCCO2` [Compound 21, 1-(1-butyl-4-chloro-2-piperidin-1-yl-1H-imidazol-5-yl)-N-(2,3-dihydro-1,4-benzodioxin-6-ylmethyl)-N-(3-ethoxybenzyl)methanamine], with < 1000 nM.
Take `CCCCn1c(N2CCOCC2)nc(Cl)c1CN(CCC(C)C)Cc1ccc2c(c1)CCCN2` [Compound 22]: the Ki is < 1000 nM.
